Test results as given in US12162878B2 (HINOVA PHARMACEUTICALS INC., priority 2018, dated 2024).

What was measured:
Assay type in all cases: cell-based, human
BT474 cells = test: Inhibition of proliferation of BT474 cells (CCK-8); conditions: for IC50: Homo sapiens, BT-474, 144 h, 6 days, CCK-8
Description: (§1) • BT474 cell line (Cell Bank of Chinese Academy of Sciences, TCHu143) • FBS (Gibco, Cat. No. 10099-141) • 0.01M PBS (Biosharp, Cat. No. 162262) • RIPM1640 (Hyclone, Cat. No. 308090.01) • Penicillin-Streptomycin (Hyclone, Cat. No. SV30010) • Cell counting kit-8 (Signalway Antibody, Cat. No. CP002) • DMSO (Sigma, Cat. No. D5879) • Centrifuge Tube, 15 ml (Excell Bio, Cat. No. CS015-0001) • Cell Culture Dish (Excell Bio, Cat. No. CS016-0128) • 96-well cell culture cluster (Corning, Cat. No. 3599) 3. Experimental Method
1) BT474 cells were subcultured in cell culture media, and the cells in good growth condition were seeded in a 96-well plate, 80 μL for each well, thus the number of cells per well was 1500, then the plate was cultured overnight in a 37° C., 5% CO2 cell incubator.
(§2) 2) The drug was prepared with dimethyl sulfoxide (DMSO) as a 10 mM stock solution. Prior to use, the solution was diluted 3 times with DMSO, and then diluted with a 3-fold gradient to obtain 9 concentration gradients. Then, each concentration of the compound was further diluted 200 times with the culture media (to ensure that DMSO concentration in the culture system was 0.1%), 2 repeat wells for each concentration. The diluted solution of each compound (20 μL) was added to the cell culture well (with a final concentration of 10 μM, 3.3 μM, 1.1 and shaken gently for mixing. In addition, three negative control wells containing only cells and three blank control wells containing only culture medium (20 μL DMSO diluted 200 times with culture medium being added to six wells) were included.
(§3) (1) After culturing for 6 days, 10 μL CCK-8 was added to each well and cultured for additional 2.5 h in a 37° C., 5% CO2 cell incubator.
(§4) (2) The absorbance (OD value) at 450 nm was measured with a multifunctional microplate reader.
(§5) (3) The data was analyzed by the Dose-response-inhibition equation in the software GraphPad Prism6, and the IC50 value was obtained.

Vcap cells [1] = test: Inhibition of proliferation of Vcap cells (CCK-8); conditions: for IC50: Homo sapiens, 144 h, 6 days, CCK-8
Description: as §1, with “Vcap” for “BT474”, “TCHu220)” for “TCHu143)”, “DMEM HIGH Glucose” for “RIPM1640”, “SH30243.01)” for “308090.01)”, “Dish,” for “Dish”, “2.” for “3.”
1) Vcap cells were subcultured in cell culture media, and the cells in good growth condition were seeded in a 96-well plate, 80 μL for each well, thus the number of cells per well was 10000, then the plate was cultured overnight in a 37° C., 5% CO2 cell incubator.
as §2, with “1.1 μM . . . ),” for “1.1”
as §3, §4, §5

Vcap cells [2] = test: Compound in combination with androgen receptor inhibitor HC-1119, proliferation of Vcap cells (CCK-8); conditions: for IC50: Homo sapiens, VCaP, 144 h, 6 days, read-out: IC50 for inhibition on the activity of Vcap; for effect of combination with HC-1119 on inhibitory action on Vcap cells (in words): in combination with HC-1119, Vcap cells
Description: as §1, with “Vcap” for “BT474”, “TCHu220)” for “TCHu143)”, “DMEM HIGH Glucose” for “RIPM1640”, “SH30243.01)” for “308090.01)”, “2.” for “3.”
1) Vcap cells were subcultured in cell culture media, and the cells in good growth condition were seeded in a 96-well plate, 60 μL for each well, thus the number of cells per well was 10000, then the plate was cultured overnight in a 37° C., 5% CO2 cell incubator.
2) The drug was prepared with dimethyl sulfoxide (DMSO) as a 10 mM stock solution. Prior to use, the solution was diluted 3 times with DMSO, and then diluted with a 3-fold gradient to obtain 9 concentration gradients. Then, each concentration of the compound was further diluted 200 times with the culture media (to ensure that DMSO concentration in the culture system was 0.1%), 2 repeat wells for each concentration. The diluted solution of each compound (20 μL) was added to the cell culture well (with a final concentration of 10 μM, 3.3 μM, 1.1 μM . . . ); while the solution of HC-1119 was diluted with culture media to the concentrations of 50 μM and […], respectively, and the diluted solution of HC-1119 was added to the corresponding cell culture well (with a final concentration of 10 μM, 1 μM), then shaken gently for mixing. In addition, three negative control wells containing only cells and three blank control wells containing only culture media (20 μL DMSO diluted 200 times with culture media being added to six wells) were included.
as §3, §4, §5

[3] = in combination with 1 μM HC-1119, Vcap cells
[4] = in combination with 10 μM HC-1119, Vcap cells

Compound	IC50 (BT474 cells) [nM]	inhibitory action on BT474 cells (in words) (BT474 cells)	inhibitory action on Vcap cells (in words) (Vcap cells [1])	IC50 (Vcap cells [1]) [nM]	IC50 (Vcap cells [2]; compound alone, Vcap cells) [nM]	IC50 (Vcap cells [2]; [3]) [nM]	IC50 (Vcap cells [2]; [4]) [nM]	effect of combination with HC-1119 on inhibitory action on Vcap cells (in words) (Vcap cells [2])
[2H]C([2H])([2H])n1cc(-c2cc(NS(=O)(=O)CC)ccc2N2CCC3(CC2)CC3)c2cc[nH]c2c1=O [Compound 41]	330	–	–	–	–	–	–	–
[2H]C([2H])([2H])n1cc(-c2cc(S(=O)(=O)CC)ccc2N2CCC3(CC3)C2)c2cc[nH]c2c1=O [Compound 55, 4-(5(ethylsulfonyl)-2-(5-aza-spiro[2.4]heptan-5-yl)phenyl)-6-trideuteromethyl-1H-pyrrolo[2,3-c]pyridin-7(6H)-one]	130	effective inhibitory action	–	–	–	–	–	–
[2H]C([2H])([2H])n1cc(-c2cc(S(C)(=O)=O)ccc2N2CCC3(CC2)CC3(F)F)c2cc[nH]c2c1=O [Compound 184, 4-(2-(1,1-difluoro-6-aza-spiro[2.5]octan-6-yl)-5-(methylsulfonyl)phenyl)-6-trideuteromethyl-1H-pyrrolo[2,3-c]pyridin-7(6H)-one]	–	–	effective inhibitory action	15	15	0.33	0.13	improve the inhibitory action
[2H]C([2H])([2H])n1cc(-c2cc(S(C)(=O)=O)c(F)cc2N2CCC3(CC2)CC3(F)F)c2cc[nH]c2c1=O [Compound 219, 4-(2-(1,1-difluoro-6-aza-spiro[2.5]octan-6-yl)-4-fluoro-5-(methylsulfonyl)phenyl)-6-trideuteromethyl-1H-pyrrolo[2,3-c]pyridin-7(6H)-one]	–	–	effective inhibitory action	17.6	17.6	0.55	0.18	improve the inhibitory action
